SMILES strings stand for the structures. Where two headings read alike, the source gives them in different places.

Data set [1] deals with colorectal cancer cell line HCT116. Description: Cell growth inhibitory activity, HCT116. It counts as cell-based. On the procedure:
(§1) The cell growth inhibitory activity against a colorectal cancer cell line HCT116 was measured. As an index of cell growth inhibitory activity, a concentration at which cell growth was inhibited by 50% as compared with a control (IC50) was used. The method is as follows. HCT116 was added to a 6-well plate by 5×10^4, compounds having various concentrations were added after 24 hours, and the number of cells was counted after 72 hours of culture. As the control, DMSO was used in an amount equal to the amount added in accordance with the addition concentration of the highest-concentration compound. The number of cells at each concentration relative to the control was expressed as a percentage.
(§2) The method is as described above.
(§3) The cell growth inhibitory activity (IC50) of each of curcumin, GO-Y199, and GO-Y206 against the colorectal cancer cell lines DLD-1 and HCT116 and the gastric cancer cell lines KATO III and H-111-TC was measured. The method is as described above.

The nature of data set [2]: Turbidity measurement. It counts as physicochemical. Particulars: for Turbidity (Relative Value): Table 3, relative to curcumin = 1. On the procedure: The turbidity of various compounds was measured. The method is as follows. […] Curcumin was cloudy while GO-Y199 was clear. The solubility was measured with a turbidimeter (WZB-170 Portable Turbidimeter available from REX). The turbidity of the compound was corrected for concentration.
Subsequently, GO-Y206 and curcumin were adjusted to final concentrations of 1.25 μM and 5.00 μM, respectively, and their turbidities were measured.

Data set [3] has as its system colorectal cancer cell line DLD-1. Put plainly: Cell growth inhibitory activity, DLD-1. It counts as cell-based. Particulars: Table 6; read-out: IC50 (μM) DLD-1. The procedure: as §1, §2, §3
Data set [4] deals with gastric cancer cell line H-111-TC. Put plainly: Cell growth inhibitory activity, H-111-TC. It counts as cell-based. To be noted: Table 6. On the procedure:
as §1, with “percentage. In Table 3, the turbidities of the compounds are also indicated.” for “percentage.”
The cell growth inhibitory activity (IC50) of each of curcumin, GO-Y199, and GO-Y206 against the colorectal cancer cell lines DLD-1 and HCT116 and the gastric cancer cell lines KATO III and H-111-TC was measured. The method is as described above. FIG. 8 indicates the results of cell growth inhibitory activity of these compounds against various cancer cell lines.

Data set [5] concerns gastric cancer cell line KATO III. Description: Cell growth inhibitory activity, KATO III. To be noted: Table 6; read-out: IC50 (μM) KATO III. It counts as cell-based. On the procedure: as §1, §2, §3
Data set [6] deals with cutaneous T-cell lymphoma cell line HUT78. Description: Cell growth inhibitory activity, HUT78. It counts as cell-based. To be noted: Table 10. On the procedure: [The source words this procedure for another cell line and reports this cell line under the same test.] as §1, §2
The test system of data set [7] is cutaneous T-cell lymphoma cell line HH. Put plainly: Cell growth inhibitory activity, HH. It counts as cell-based. To be noted: Table 10. On the procedure: [The source words this procedure for another cell line and reports this cell line under the same test.] as §1, §2
Data set [8] deals with pancreatic cancer cell line Panc-1. Description: Cell growth inhibitory activity, Panc-1. It counts as cell-based. To be noted: Table 7. The procedure: [The source words this procedure for another cell line and reports this cell line under the same test.] as §1, §2
The subject of data set [9] is malignant melanoma cell line G361. Put plainly: Cell growth inhibitory activity, G361. It counts as cell-based. To be noted: Table 9. The procedure: [The source words this procedure for another cell line and reports this cell line under the same test.] as §1, §2
Data set [10] deals with pancreatic cancer cell line ASPC-1. Put plainly: Cell growth inhibitory activity, ASPC-1. It counts as cell-based. To be noted: Table 7. On the procedure: [The source words this procedure for another cell line and reports this cell line under the same test.] as §1, §2
Data set [11] relates to vascular endothelial cells HUVEC-R resistant to Ki8751. Description: Angiogenesis inhibitory activity, HUVEC-R. It counts as cell-based. Particulars: Table 11; number of cells after 72 hours. On the procedure:
HUVEC-R was cultured in the presence of each compound using an EGMTM-2 Bullet Kit (Takara Bio Inc., Otsu, Japan), and the number of cells was measured after 72 hours. In addition, IC50 was determined from the results.

Data set [12] relates to malignant pleural mesothelioma cell line NCI-H226. Put plainly: Cell growth inhibitory activity, NCI-H226. It counts as cell-based. Particulars: Table 8. The procedure:
as §1, with “percentage. In Table 3, the turbidities of the compounds are also indicated.” for “percentage.”
(§4) GO-Y198, GO-Y199, and GO-Y200 against malignant pleural mesothelioma cell lines NCI-H226 and MSTO211H was measured. The method is as described above. For comparison, the IC50 of cisplatin (CDDP), a cytocidal anticancer agent, is also indicated.

Data set [13] deals with malignant pleural mesothelioma cell line MSTO211H. Description: Cell growth inhibitory activity, MSTO211H. It counts as cell-based. To be noted: Table 8. The procedure:
as §1, with “percentage. In Table 3, the turbidities of the compounds are also indicated.” for “percentage.”
as §4

[14] abbreviates: Table 3, HCT116, cell count after 72 hours of culture vs DMSO control, read-out: IC50.
Where [15] appears, read: Table 1, average turbidity corrected for final concentration (1.7-170 μm, per compound).
Setting [16] is: Table 1, turbidity/μm relative to curcumin = 1.

One may read the IC50 as the concentration at which inhibition is half-maximal. On to `COCOc1cc(C=CC(=O)CC(SCCOCCOCCOCCOCc2cn(CCCOC(=O)CCCCC3SCC4NC(=O)NC43)nn2)c2cc(OCOC)cc(OCOC)c2)cc(OCOC)c1` (mixture of isomers) [GO-Y195], for which the IC50 in data set [1] (setting [14]) was 1.8 µM.

For the molecule `COCOc1cc(C=CC(=O)CC(SCCOCCOCCOCCOCc2cn(C3OC(CO)C(O)C(O)C3O)nn2)c2cc(OCOC)cc(OCOC)c2)cc(OCOC)c1` (mixture of isomers) [GO-Y196], the concentration for half-maximal inhibition (IC50) in data set [1] (setting [14]) was 0.67 µM. The molecule also returned a Turbidity/μm in data set [2] (setting [15]) of 0 NTU/μM. Further, the “Relative Value (turbidity)” value in data set [2] (setting [16]) is given as 0. For the same molecule, the “Turbidity (Relative Value)” value in [2] amounted to 0. Besides, the “Ave Turbidity (NTU)” value in data set [2] (final conc. 8.3 μm in DDW) turned out to be 0 NTU.

For the molecule `COCOc1cc(C=CC(=O)CC(SCCOCCOCCOCCOCc2cn(C3CC(O)C(O)C(CO)O3)nn2)c2cc(OCOC)cc(OCOC)c2)cc(OCOC)c1` (mixture of isomers) [GO-Y206], the half-maximal inhibitory concentration (IC50) amounted to 1.21 µM in data set [3]; 0.91 µM in data set [1] (Table 6, read-out: IC50 (μM) HCT116); 4.67 µM in data set [4]; 3.11 µM in data set [5]. In addition, the Turbidity/μm in data set [2] (Table 2, final conc. 1.25 μM) was 0.144 NTU/μM; in data set [2] (Table 2, final conc. 5.0 μM), 0.364 NTU/μM. Moreover, the “Turbidity (NTU)” value in [2] (Table 2, final conc. 5.0 μM) is recorded as 1.82 NTU. Further, the “Relative Value (turbidity)” value in data set [2] (Table 2, value in parentheses, relative to curcumin = 1.00) is given as “(0.052)”. Moreover, in data set [2] (from averaged NTU/μM), the “turbidity as percent of curcumin” value is listed as 5%.

`COCOc1cc(/C=C/C(=O)CC(SCC(=O)OC)c2cc(OCOC)cc(OCOC)c2)cc(OCOC)c1` (racemic) [GO-Y136, reference compound]: the half-maximal inhibitory concentration (IC50) in data set [1] (setting [14]) worked out at 0.89 µM. Besides, in data set [2] (setting [15]), the Turbidity/μm was 0.024 NTU/μM. In addition, in data set [2] (setting [16]), the “Relative Value (turbidity)” value is recorded as 0.083. Also, in data set [2], the “Turbidity (Relative Value)” value was determined as 0.083. In addition, the “Ave Turbidity (NTU)” value in data set [2] (final conc. 1.7 μm in DDW) is on record as 0.04 ± 0.0082 NTU.

Regarding `COCOc1cc(/C=C/C(=O)CC(SCCOCCOCCOCCOCc2cn(CCCO)nn2)c2cc(OCOC)cc(OCOC)c2)cc(OCOC)c1` (racemic) [GO-Y194], the IC50 in data set [1] (setting [14]) was found to be 0.5 µM.

Consider `COc1cc(/C=C/C(=O)/C=C/c2ccc(O)c(OC)c2)ccc1O` [GO-Y022, reference compound], for which the half-inhibitory concentration (IC50) came out at 4.03 µM in data set [6]; 9.16 µM in data set [7]; 6.67 µM in [8]; 2.02 µM in [1] (setting [14]); 3.1 µM in data set [9]; 8.52 µM in [10]. The same molecule yielded a concentration for half-maximal inhibition (IC50) in data set [11] of 4.7 µM. Also, in [2] (setting [15]), the Turbidity/μm worked out at 0.014 NTU/μM. The “Relative Value (turbidity)” value in data set [2] (setting [16]) is on record as 0.048. The “Turbidity (Relative Value)” value in data set [2] amounted to 0.048. In [2] (final conc. 8.3 μm in DDW), the “Ave Turbidity (NTU)” value was 0.12 ± 0.0094 NTU.

`COCOc1cc(/C=C/C(=O)/C=C/c2cc(OCOC)cc(OCOC)c2)cc(OCOC)c1` [GO-Y030, (1E,4E)-1,5-bis-[3,5-bis(methoxymethoxy)phenyl]pentadiene-3-one, reference compound] displayed a Turbidity/μm in [2] (setting [15]) of 2.68 NTU/μM. Besides, the “Ave Turbidity (NTU)” value in data set [2] (final conc. 17 μm in DDW) is given as 45.6 ± 0.21 NTU. Also, the “Turbidity (NTU)” value in [2] (individual measurements, final conc. 170 μm, DMSO stock diluted in 30 mL DDW) is “over limit”.

As to `COCOc1cc(/C=C/C(=O)CC(SCCOCCOCCOCCOCc2cn([C@H]3O[C@@H](CO)[C@H](O)[C@@H](O)[C@@H]3O)nn2)c2cc(OCOC)cc(OCOC)c2)cc(OCOC)c1` (some centres unmarked) [GO-Y197], the half-maximal inhibitory concentration (IC50) in [6] is 0.81 µM; in data set [12] it was 4 µM; in data set [7], 1.11 µM; in data set [1] (setting [14]) it was 0.7 µM; in [9], 1.1 µM; in data set [13], 3.9 µM. In addition, in data set [11], the midpoint of inhibition, the IC50, lay at 0.96 µM. This molecule also came in with a Turbidity/μm in data set [2] (setting [15]) of 0 NTU/μM. In addition, the “Relative Value (turbidity)” value in data set [2] (setting [16]) stood at 0. Moreover, the “Turbidity (Relative Value)” value in [2] is on record as 0. In addition, in data set [2] (final conc. 8.3 μm in DDW), the “Ave Turbidity (NTU)” value was determined as 0 NTU.

As to `COCOc1cc(/C=C/C(=O)CC(SCCOCCOCCOCCOCc2cn([C@H]3O[C@H](CO)[C@@H](O)[C@H](O)[C@@H]3O)nn2)c2cc(OCOC)cc(OCOC)c2)cc(OCOC)c1` (some centres unmarked) [GO-Y198], the IC50 in data set [6] is 0.51 µM; in data set [12], 4.2 µM; in data set [7] it was 1.15 µM; in data set [1] (setting [14]), 0.44 µM; in [13], 0.9 µM; in data set [11] it was 1.08 µM. Besides, in data set [2] (setting [15]), the Turbidity/μm amounted to 0 NTU/μM. Also, the “Relative Value (turbidity)” value in data set [2] (setting [16]) is on record as 0. For the same molecule, the “Turbidity (Relative Value)” value in data set [2] is 0. The “Ave Turbidity (NTU)” value in [2] (final conc. 8.3 μm in DDW) was determined as 0 NTU.

With `COCOc1cc(/C=C/C(=O)CC(SCCOCCOCCOCCOCc2cn([C@@H]3O[C@H](CO)[C@@H](O[C@H]4O[C@H](CO)[C@@H](O)[C@H](O)[C@H]4O)[C@H](O)[C@H]3O)nn2)c2cc(OCOC)cc(OCOC)c2)cc(OCOC)c1` (some centres unmarked) [GO-Y200], the 50% inhibitory concentration (IC50) in [6] was 0.91 µM; in data set [12], 4.7 µM; in data set [7] it was 1.31 µM; in [8] it was 0.91 µM; in data set [1] (setting [14]) it was 0.42 µM; in data set [10], 1.33 µM. For the same molecule, the half-maximal inhibitory concentration (IC50) in data set [13] was determined as 4.5 µM; in [11], 1.3 µM. In [2] (setting [15]), this molecule displayed a Turbidity/μm of 0 NTU/μM. The “Relative Value (turbidity)” value in data set [2] (setting [16]) stood at 0. Moreover, the “Turbidity (Relative Value)” value in data set [2] is 0. Also, the “Ave Turbidity (NTU)” value in data set [2] (final conc. 8.3 μm in DDW) is 0 NTU.

Values taken from patent US20240158430A1, “NOVEL COMPOUND OR SALT THEREOF, AND ANTITUMOR ACTIVATOR CONTAINING SAME AS ACTIVE INGREDIENT” (AKITA UNIVERSITY, priority 2021, published 2024).
